Source: US10399940B2, “Substituted pyrrolidines and methods of use” (AbbVie S.à.r.l., priority 2016, dated 2019)
Read-outs that look alike come from different tables or passages of the source.

Biological target: T1, F508delCFTR (Homo sapiens, UniProt P13569, DEL508-508)
T1 construct: expressed in transfected cells; host or cells: CFBE41o- (human lung derived epithelial cell line), doxycycline-inducible expression
Assay: Cell Surface Expression-Horse Radish Peroxidase (CSE-HRP) assay
Type: cell-based
Details: CFBE41o-F508delCFTR-HRP cells; for Maximum % activity (with co-corrector): with co-corrector (2 μM); for Maximum % activity (with co-corrector) / Maximum % activity (without co-corrector): normalized to on-plate positive control, highest concentration 20 μM
Outline: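 Surface F508delCFTR-HRP was read by luminol luminescence after 18–24 h compound exposure at 33 °C, without or with 2 μM co-corrector. Doses were eight 3-fold steps from 20 μM, in doxycycline-induced (0.5 μg/mL, 72 h) CFBE41o- cells. % activity was scaled to the on-plate 2 μM positive control minus DMSO; EC50 came from a variable-slope sigmoid fit.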

[1] = test compound without co-corrector, 18-24 hours at 33° C., read-out: EC50 (without co-corrector)
[2] = with co-corrector (2 μM of 3-[(2R,4R)-4-({[1-(2,2-difluoro-1,3-benzodioxol-5-yl)cyclopropyl]carbonyl}amino)-7-methoxy-3,4-dihydro-2H-chromen-2-yl]benzoic acid), read-out: EC50 (with co-corrector)

T1 sequence (P13569 with tags, fused parts or gaps DEL508-508): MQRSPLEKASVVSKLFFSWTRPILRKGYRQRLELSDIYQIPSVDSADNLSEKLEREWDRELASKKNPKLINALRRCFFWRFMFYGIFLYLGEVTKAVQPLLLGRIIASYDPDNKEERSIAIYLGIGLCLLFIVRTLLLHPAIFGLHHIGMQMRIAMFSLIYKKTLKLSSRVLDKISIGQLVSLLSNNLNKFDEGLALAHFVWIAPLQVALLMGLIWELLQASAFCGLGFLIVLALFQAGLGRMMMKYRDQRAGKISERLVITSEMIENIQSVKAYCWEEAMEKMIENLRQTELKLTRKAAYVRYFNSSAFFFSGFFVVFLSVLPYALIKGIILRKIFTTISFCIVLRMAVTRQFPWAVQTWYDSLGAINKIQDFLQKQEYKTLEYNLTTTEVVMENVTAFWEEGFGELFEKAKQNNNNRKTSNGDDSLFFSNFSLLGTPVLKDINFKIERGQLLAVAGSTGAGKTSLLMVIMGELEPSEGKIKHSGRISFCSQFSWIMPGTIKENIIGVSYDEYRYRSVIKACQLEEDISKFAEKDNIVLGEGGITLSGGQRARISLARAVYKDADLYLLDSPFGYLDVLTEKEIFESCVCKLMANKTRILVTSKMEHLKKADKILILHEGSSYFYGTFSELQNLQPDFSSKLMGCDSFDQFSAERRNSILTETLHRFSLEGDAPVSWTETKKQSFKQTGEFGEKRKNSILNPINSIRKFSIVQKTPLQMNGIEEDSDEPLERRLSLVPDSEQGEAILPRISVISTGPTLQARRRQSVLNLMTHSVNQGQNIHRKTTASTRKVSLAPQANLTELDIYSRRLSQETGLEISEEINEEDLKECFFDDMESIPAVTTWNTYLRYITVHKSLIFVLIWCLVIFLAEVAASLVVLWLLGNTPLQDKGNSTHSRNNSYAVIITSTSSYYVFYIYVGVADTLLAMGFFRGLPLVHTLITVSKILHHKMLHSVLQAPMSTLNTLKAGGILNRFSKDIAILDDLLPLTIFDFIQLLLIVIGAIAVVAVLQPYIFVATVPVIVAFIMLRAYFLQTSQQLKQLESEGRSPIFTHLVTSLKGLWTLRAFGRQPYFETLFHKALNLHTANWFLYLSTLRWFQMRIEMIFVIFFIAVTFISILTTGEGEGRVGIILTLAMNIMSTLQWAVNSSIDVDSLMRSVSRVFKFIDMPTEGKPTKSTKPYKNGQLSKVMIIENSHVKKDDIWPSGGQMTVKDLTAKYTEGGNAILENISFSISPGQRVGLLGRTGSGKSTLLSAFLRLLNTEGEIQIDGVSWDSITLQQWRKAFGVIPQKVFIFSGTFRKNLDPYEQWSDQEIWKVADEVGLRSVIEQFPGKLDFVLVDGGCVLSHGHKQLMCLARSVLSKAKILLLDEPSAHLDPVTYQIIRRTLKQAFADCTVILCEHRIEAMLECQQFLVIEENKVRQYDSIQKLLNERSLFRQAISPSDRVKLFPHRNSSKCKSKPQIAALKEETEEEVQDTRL

SMILES	EC50 [1]	EC50 [2]	Maximum % activity (with co-corrector)	Maximum % activity (without co-corrector)
CC(C)Oc1ncccc1[C@H]1[C@@H](OCc2cc3cc(Br)ccc3o2)[C@H](C(C)(C)C)[C@@H](C(=O)O)N1C(=O)[C@@H]1CCCCO1 [Example 289, (2S,3R,4S,5S)-4-[(5-bromo-1-benzofuran-2-yl)methoxy]-3-tert-butyl-1-[(2S)-oxane-2-carbonyl]-5-{2-[(propan-2-yl)oxy]pyridin-3-yl}pyrrolidine-2-carboxylic acid]	1000 to 10000 nM	< 1000 nM	+++ (≥350)	+ (<100)
COc1nc(C(C)(C)C)ccc1CO[C@H]1[C@H](C(C)(C)C)[C@@H](C(=O)O)N(C(=O)[C@@H]2CCCCO2)[C@H]1c1cccnc1OC(C)C [Example 290, (2S,3R,4S,5S)-3-tert-butyl-4-[(6-tert-butyl-2-methoxypyridin-3-yl)methoxy]-1-[(2S)-oxane-2-carbonyl]-5-{2-[(propan-2-yl)oxy]pyridin-3-yl}pyrrolidine-2-carboxylic acid]	< 1000 nM	< 1000 nM	+++ (≥350)	++ (≥100 and <200)
COc1nc(C(C)(C)C)ccc1CO[C@H]1[C@H](C(C)(C)C)[C@@H](C(=O)O)N(C(=O)C2CCCCC2)[C@H]1c1cccnc1OC(C)C [Example 291, (2S,3R,4S,5S)-3-tert-butyl-4-[(6-tert-butyl-2-methoxypyridin-3-yl)methoxy]-1-(cyclohexanecarbonyl)-5-{2-[(propan-2-yl)oxy]pyridin-3-yl}pyrrolidine-2-carboxylic acid]	1000 to 10000 nM	1000 to 10000 nM	+++ (≥350)	+++ (≥200)
CCc1ccccc1[C@H]1[C@@H](OCc2cc3cccc(C(F)(F)F)c3o2)[C@H](C(C)(C)C)[C@@H](C(=O)O)N1C(=O)[C@@H]1CCCCO1 [Example 292, (2S,3R,4S,5S)-3-tert-butyl-5-(2-ethylphenyl)-1-[(2S)-oxane-2-carbonyl]-4-{[7-(trifluoromethyl)-1-benzofuran-2-yl]methoxy}pyrrolidine-2-carboxylic acid]	1000 to 10000 nM	1000 to 10000 nM	+++ (≥350)	++ (≥100 and <200)
CCc1ccccc1[C@H]1[C@@H](OCc2cc3cc(Cl)ccc3o2)[C@H](C(C)(C)C)[C@@H](C(=O)O)N1C(=O)[C@@H]1CCCCO1 [Example 293, (2S,3R,4S,5S)-3-tert-butyl-4-[(5-chloro-1-benzofuran-2-yl)methoxy]-5-(2-ethylphenyl)-1-[(2S)-oxane-2-carbonyl]pyrrolidine-2-carboxylic acid]	< 1000 nM	< 1000 nM	+++ (≥350)	++ (≥100 and <200)
COc1ncc(C2CCC2)cc1CO[C@H]1[C@H](C(C)(C)C)[C@@H](C(=O)O)N(S(=O)(=O)c2cccc3ccccc23)[C@H]1c1cccnc1OC(C)C [Example 294, (2S,3R,4S,5S)-3-tert-butyl-4-[(5-cyclobutyl-2-methoxypyridin-3-yl)methoxy]-1-(naphthalene-1-sulfonyl)-5-{2-[(propan-2-yl)oxy]pyridin-3-yl}pyrrolidine-2-carboxylic acid]	> 10000 nM	1000 to 10000 nM	++ (≥150 and <350)	+ (<100)
COc1ncc(C2CCC2)cc1CO[C@H]1[C@H](C(C)(C)C)[C@@H](C(=O)O)N(C(=O)C2CCCCC2)[C@H]1c1ccccc1C(C)C [Example 295, (2S,3R,4S,5S)-3-tert-butyl-4-[(5-cyclobutyl-2-methoxypyridin-3-yl)methoxy]-1-(cyclohexanecarbonyl)-5-[2-(propan-2-yl)phenyl]pyrrolidine-2-carboxylic acid]	< 1000 nM	< 1000 nM	+++ (≥350)	+++ (≥200)
